Laboratory results from DBAASP.
Converted amounts (≈) assume the structure as drawn. “And” between values parts separate entries of the source, which are not always exact repeats. Identical values can stand only once. Blank lines part the entries; values can stand above or below the molecule they belong to.

Legend:
Test in all cases: ≥ marks a high value that may be exact or a test limit, other limits are often not marked, values filed in µg/mL are converted to µM
Escherichia coli UB1005 = tested on: Escherichia coli UB1005
Escherichia coli DC2 = tested on: Escherichia coli DC2
[1] = tested on: Corynebacterium xerosis C875
[2] = tested on: Staphylococcus epidermidis C621
[3] = tested on: Staphylococcus aureus ATCC 29213
[4] = tested on: Escherichia coli ATCC 25922
[5] = tested on: Candida albicans ATCC 37092
[6] = tested on: Enterococcus faecalis ATCC 29212
[7] = tested on: Candida tropicalis ATCC 37097
[8] = tested on: Staphylococcus aureus ATCC 12493
Staphylococcus aureus = tested on: Staphylococcus aureus
[9] = tested on: Pseudomonas aeruginosa ATCC 27853
[10] = tested on: Staphylococcus aureus NCTC 10788
[11] = tested on: Klebsiella pneumoniae ATCC 43816
[12] = tested on: Enterococcus faecalis NCTC 12697
[13] = tested on: Candida albicans NCYC 1467
[14] = tested on: Escherichia coli NCTC 10418
[15] = tested on: Staphylococcus epidermidis ATCC 12228
[16] = tested on: Staphylococcus aureus Cowan 1
[17] = tested on: Acinetobacter baumannii ATCC 19606
Staphylococcus capitis 1 = tested on: Staphylococcus capitis 1
[18] = tested on: Staphylococcus aureus ATCC 25923
[19] = tested on: Candida albicans ATCC 10231
[20] = tested on: Pseudomonas aeruginosa ATCC 15692
[21] = tested on: Schizosaccharomyces pombe
[22] = tested on: Yersinia pseudotuberculosis YPIII
Acinetobacter junii RT-4 = tested on: Acinetobacter junii RT-4
Escherichia coli D21 = tested on: Escherichia coli D21
Saccharomyces cerevisiae = tested on: Saccharomyces cerevisiae
[23] = tested on: Streptococcus pyogenes ATCC 21547
Bacillus megaterium Bm11 = tested on: Bacillus megaterium Bm11
[24] = tested on: Pseudomonas syringae pv. tabaci 1918NCPPB
[25] = tested on: Bacillus subtilis ATCC 9372
[26] = tested on: Pseudomonas aeruginosa ATCC 9027
[27] = tested on: Escherichia coli ATCC 8739
[28] = tested on: Staphylococcus aureus ATCC 6538
[29] = tested on: Proteus vulgaris NCTC 4635
[30] = tested on: Salmonella enterica subsp. enterica serovar Typhimurium ATCC 14028
[31] = tested on: Shigella dysenteriae ATCC 9752
[32] = tested on: Klebsiella pneumoniae ATCC 10031
[33] = tested on: Staphylococcus aureus TK784
[34] = tested on: Micrococcus luteus ATCC 10240
[35] = tested on: Staphylococcus aureus ATCC 6538P
[36] = tested on: Bacillus subtilis ATCC 6633

MIC (Escherichia coli UB1005): ≥ 32 µM
MIC (Escherichia coli DC2): ≥ 32 µM
MIC [1]: 0.5 µM (≈ 1.22 µg/mL)
MIC [2]: 16 µM (≈ 38.9 µg/mL)
Compound: CSCC[C@H](NC(=O)[C@H](C)NC(=O)[C@H](C)NC(=O)[C@H](C)NC(=O)[C@H](CCCCN)NC(=O)[C@@H](N)CCCCN)C(=O)N[C@@H](C)C(=O)N[C@@H](C)C(=O)N[C@@H](C)C(=O)N[C@@H](C)C(=O)N[C@@H](C)C(=O)N[C@@H](CCSC)C(=O)N[C@@H](C)C(=O)N[C@@H](C)C(=O)N[C@@H](Cc1c[nH]c2ccccc12)C(=O)N[C@@H](C)C(=O)N[C@@H](C)C(=O)N[C@@H](CCSC)C(=O)N[C@@H](C)C(=O)N[C@@H](C)C(=O)N[C@@H](C)C(=O)N[C@@H](CCCCN)C(=O)N[C@@H](CCCCN)C(=O)N[C@@H](CCCCN)C(=O)N[C@@H](CCCCN)C(N)=O [KKAAAMAAAAAMAAWAAMAAAKKKK]

MIC [3]: 4.5 µM and 10.2 µM
MIC [4]: 6.1 µM and 10.2 µM
MIC [5]: 10 µM and 6.4 µM
MIC [6]: 4.7 µM and 10.2 µM
MIC [7]: 1.3 µM and 1.8 µM
Compound: CC(C)C[C@H](NC(=O)[C@@H](N)CCCN=C(N)N)C(=O)N[C@@H](Cc1ccc(O)cc1)C(=O)N[C@@H](CCCN=C(N)N)C(N)=O [RLYR]

MIC [8]: 8 µM (≈ 15.7 µg/mL)
MIC (Staphylococcus aureus): 11.3 µM (≈ 22.2 µg/mL)
MIC [9]: 4 µM (≈ 7.87 µg/mL)
MIC [10]: 2 µM (≈ 3.93 µg/mL)
MIC [11]: ≥ 32 µM
MIC [12]: ≥ 256 µM
MIC [13]: 2 µM (≈ 3.93 µg/mL)
MIC [14]: 2 µM (≈ 3.93 µg/mL)
Compound: CC[C@H](C)[C@H](NC(=O)[C@H](CO)NC(=O)[C@H](CCCCN)NC(=O)[C@H](Cc1c[nH]c2ccccc12)NC(=O)[C@H](CC(C)C)NC(=O)[C@H](C)N)C(=O)N[C@@H](CC(C)C)C(=O)N[C@@H](CCCCN)C(=O)N[C@@H](CC(N)=O)C(=O)N[C@H](C(=O)NCC(=O)N[C@@H](CCCCN)C(=O)N[C@@H](C)C(=O)N[C@@H](C)C(=O)NCC(=O)N[C@@H](CCCCN)C(=O)N[C@@H](C)C(=O)N[C@H](C(=O)N[C@@H](CC(C)C)C(N)=O)C(C)C)C(C)C [ALWKSILKNVGKAAGKAVL]

MIC (Escherichia coli UB1005): ≥ 64 µM
MIC (Escherichia coli DC2): ≥ 64 µM
MIC [1]: 16 µM (≈ 38.8 µg/mL)
MIC [2]: ≥ 64 µM
Compound: C[C@H](NC(=O)[C@H](C)NC(=O)[C@H](C)NC(=O)[C@H](CCCCN)NC(=O)[C@H](C)NC(=O)[C@H](C)NC(=O)[C@H](C)NC(=O)[C@H](CCCCN)NC(=O)[C@@H](N)CCCCN)C(=O)N[C@@H](C)C(=O)N[C@@H](C)C(=O)N[C@@H](CCCCN)C(=O)N[C@@H](C)C(=O)N[C@@H](C)C(=O)N[C@@H](Cc1c[nH]c2ccccc12)C(=O)N[C@@H](C)C(=O)N[C@@H](C)C(=O)N[C@@H](CCCCN)C(=O)N[C@@H](C)C(=O)N[C@@H](C)C(=O)N[C@@H](C)C(=O)N[C@@H](CCCCN)C(=O)N[C@@H](CCCCN)C(=O)N[C@@H](CCCCN)C(=O)N[C@@H](CCCCN)C(N)=O [KKAAAKAAAAAKAAWAAKAAAKKKK]

MIC [15]: 12 µM (≈ 19.8 µg/mL)
MIC [16]: 24 µM (≈ 39.6 µg/mL)
MIC [17]: 48 µM (≈ 79.2 µg/mL)
MIC [9]: > 48 µM
MIC (Staphylococcus capitis 1): 12 µM (≈ 19.8 µg/mL)
MIC [18]: 24 µM (≈ 39.6 µg/mL)
MIC [19]: 12 µM (≈ 19.8 µg/mL)
MIC [20]: ≥ 48 µM
MIC [21]: 12 µM (≈ 19.8 µg/mL)
MIC [22]: 24 µM (≈ 39.6 µg/mL)
MIC (Acinetobacter junii RT-4): 12 µM (≈ 19.8 µg/mL)
MIC [4]: 48 µM (≈ 79.2 µg/mL)
MIC (Escherichia coli D21): 24 µM (≈ 39.6 µg/mL)
MIC (Saccharomyces cerevisiae): 12 µM (≈ 19.8 µg/mL)
MIC [23]: 12 µM (≈ 19.8 µg/mL)
MIC (Bacillus megaterium Bm11): 3 µM (≈ 4.95 µg/mL)
MIC [24]: 24 µM (≈ 39.6 µg/mL)
MIC [6]: 48 µM (≈ 79.2 µg/mL)
Compound: CC[C@H](C)[C@H](NC(=O)[C@H](CCCN=C(N)N)NC(=O)[C@@H]1CCCN1C(=O)[C@H](CC(C)C)NC(=O)[C@H](Cc1ccccc1)NC(=O)[C@H](CCCCN)NC(=O)[C@H](CO)NC(=O)[C@H](Cc1ccccc1)NC(=O)[C@H](Cc1c[nH]c2ccccc12)NC(=O)[C@@H]1CCCN1C(=O)[C@@H](NC(=O)[C@@H](N)Cc1ccccc1)C(C)C)C(=O)N[C@@H](CC(C)C)C(N)=O [FVPWFSKFLPRIL]

MIC [25]: ≥ 351 µM
MIC [26]: 351 µM (≈ 512 µg/mL)
MIC [27]: ≥ 351 µM
MIC [28]: > 351 µM
MIC [29]: ≥ 351 µM
Compound: CC[C@H](C)[C@H](NC(=O)[C@@H](NC(=O)[C@H](CO)NC(=O)[C@H](C)NC(=O)[C@@H](NC(=O)[C@H](CCCCN)NC(=O)[C@H](CCCCN)NC(=O)[C@@H](NC(=O)[C@@H](NC(=O)[C@H](C)NC(=O)[C@H](Cc1ccccc1)NC(=O)[C@H](CC(C)C)NC(=O)CN)C(C)C)[C@@H](C)CC)C(C)C)C(C)C)C(=O)NCC(=O)NCC(=O)O [GLFAVIKKVASVIGG]

MIC [25]: ≥ 435 µM
MIC [26]: 870 µM (≈ 1020 µg/mL)
MIC [27]: ≥ 870 µM
MIC [28]: > 870 µM
MIC [29]: ≥ 870 µM
Compound: CC[C@H](C)[C@H](NC(=O)[C@@H](NC(=O)[C@H](CC(=O)O)NC(=O)[C@H](Cc1ccccc1)NC(=O)[C@H](CC(C)C)NC(=O)CN)C(C)C)C(=O)N[C@@H](CCCCN)C(=O)N[C@@H](CCCCN)C(=O)N[C@H](C(=O)N[C@@H](C)C(=O)N[C@@H](CO)C(=O)O)C(C)C [GLFDVIKKVAS]

MIC [15]: 1.42 µM (≈ 2 µg/mL)
MIC [9]: 5.67 µM (≈ 7.99 µg/mL)
MIC [30]: 1.42 µM (≈ 2 µg/mL)
MIC [31]: 0.709 µM (≈ 0.999 µg/mL)
MIC [32]: 1.42 µM (≈ 2 µg/mL)
MIC [33]: 5.67 µM (≈ 7.99 µg/mL)
MIC [4]: 1.42 µM (≈ 2 µg/mL)
MIC [34]: 2.84 µM (≈ 4 µg/mL)
MIC [35]: 1.42 µM (≈ 2 µg/mL)
MIC [36]: 1.42 µM (≈ 2 µg/mL)
Compound: CC(C)C[C@H](NC(=O)[C@H](CC(C)C)NC(=O)[C@H](CCCCN)NC(=O)[C@H](CCCCN)NC(=O)[C@H](CC(C)C)NC(=O)[C@H](CC(C)C)NC(=O)[C@H](CCCCN)NC(=O)[C@H](CCCCN)NC(=O)[C@H](CC(C)C)NC(=O)[C@H](Cc1c[nH]c2ccccc12)NC(=O)[C@@H](N)CCCCN)C(N)=O [KWLKKLLKKLL]
